According to patent US20180177845A1, “METHOD FOR TREATMENT OR PREVENTION OF A CANCER” (priority 2016, published 2018):
Where no end group is shown, it is not given here.

Tests used:
β4 integrin/FAK complex [1] = assay: immunoprecipitation of β4 integrin and FAK in HCT-116 cells; format: cell-based, human
Method: (§1) Cells or tissue samples were homogenized and extracted for Western blotting. For immunoprecipitation, proteins were incubated with antibodies as indicated at 4° C. overnight, followed by incubation for 4 hrs with protein A-Sepharose 4B beads (Sigma-Aldrich). All experiments were conducted at least three independent times.

HCT-116 cells [2] = assay: anchorage-independent growth assay, HCT-116; format: cell-based, human
Method: An anchorage-independent growth assay was conducted with several modifications. Briefly, 5×10^4 cells were seeded in a 0.3% agar in DMEM containing 10% FBS over the bottom 0.6% agar layer in DIVIEM. After incubation for 14 days, the number and size of colonies were scored.

β4 integrin/FAK complex [3] = assay: co-immunoprecipitation of β4 integrin and FAK in MDA-MB-231 cells; format: cell-based, human
Method: (§2) Various plasmid-transfected or pharmacologically treated cells or tissue samples were homogenized and extracted for Western blot analyses. About 10-20 μg whole cell lysate were used for Western blotting. A 1 mg/ml concentration of total protein from cell lysates was employed for immunoprecipitation. Some extracts subjected to immunoprecipitation were incubated with antibodies, as indicated, for 4 h at 4° C., followed by incubation for 4 h or overnight with protein A-Sepharose 4B or protein G-Sepharose beads (Sigma-Aldrich) before proceeding to Western blot analysis. Each experiment was repeated at least three independent times.

FAK phospho-Tyr397 = assay: Western blot of FAK phospho-Tyr397 in MDA-MB-231 cells; format: cell-based, human
Method: as §2

β4 integrin at Tyr1526 = assay: Western blot of β4 integrin tyrosine phosphorylation in MDA-MB-231 cells; format: cell-based, human; details: 10 μM
Method: as §2

[4] = system: FAK autophosphorylation at Tyr397; assay: Western blot of FAK autophosphorylation at Tyr397 in HCT-116 cells; format: cell-based, human
Method: as §1

paxillin/FAK complex = assay: specificity: paxillin/FAK complex in NIH3T3; format: cell-based, mouse; details: overexpressed in NIH3T3
NIH3T3 = assay: specificity: β1 integrin-mediated cell migration in NIH3T3; format: cell-based, mouse; details: overexpressed in NIH3T3
MDA-MB-231 cells [5] = assay: BrdU incorporation cell proliferation assay, MDA-MB-231; format: cell-based, human; details: MDA-MB-231 transfectants; compared to mock and triple-mutant cells
Method: At 24 h after transfection, 2×10^4 cells were serum starved for 24 h. Cells were then washed twice with DMEM and incubated for 16 h in DMEM plus 10% FBS and 100 μM BrdU (Sigma-Aldrich). After that, cells were fixed, permeabilized, heated with DNase I, and processed for immunofluorescence staining, with anti-BrdU (1:200, Sigma-Aldrich) antibody, as described previously^39, with a few modifications. Cells were then counted in multiple fields and scored for BrdU-positive staining in each independent experiment.

MDA-MB-231 cells [6] = assay: in vivo tumorigenesis, orthotopic injection into mammary fat pad; details: stably expressing MDA-MB-231 cells in mammary fat pad of nude mice; 12 weeks
Method: (§3) All mouse experiments were approved by the Institutional Animal Care and Use Committee, National Taiwan University (Taipei, Taiwan). All experimental procedures were performed in accordance with the protocols and the ethical regulations approved by the Institutional Animal Care and Use Committees of National Taiwan University (Taipei, Taiwan). Female nu/nu mice were purchased from the National Laboratory Animal Center (Taipei, Taiwan). For tumorigenesis, 1×10^6 MDA-MB-231 stably transfected pools expressing GFP-tagged FAK/25aa, its triple (FAK/25aa^E380A/K381A/Q382A)or double (FAK/25aa^R385A/S386A) mutant, or a mock transfected control that had been selected by 500 μg/ml G418 for 2 weeks were injected into the 3rd mammary fat pad of eight-week-old female nu/nu mice. Stably transfected pools of each construct were injected in 100 μl PBS. Tumor volumes and numbers were measured at 12 weeks after injection and then excised, photographed, and weighted. For tumor metastasis, 1×10^6 MDA-MB-231 cells, described above, that were labeled with luciferase by lentiviral infection were resuspended in 100 μl PBS and injected into the tail vein of six-week-old female nu/nu mice. Lung metastasis was monitored by bioluminescent imaging using an IVIS spectrum imaging system. Lung metastasis was measured on the respective day after injection.

MDA-MB-231 cells [7] = assay: in vivo lung metastasis after tail vein injection, bioluminescence; parameters: species or system nude mice; details: MDA-MB-231 transfectants, 84 days after injection, vs mock and triple mutant
Method: as §3

HCT-116 cells [8] = assay: BrdU incorporation assay, HCT-116; format: cell-based, human; details: HCT-116 cells overexpressing the peptide
Method: A BrdU incorporation assay was performed. Briefly, serum-starved cells were incubated in DMEM with 10% FBS and 100 μM BrdU (Sigma-Aldrich) for 16 hrs. Cells were fixed, permeabilized, treated with DNase I, and processed for immunofluorescence staining with anti-BrdU (Sigma-Aldrich) antibody. The BrdU-positive staining cells were scored.

HCT-116 cells [9] = assay: in vivo tumorigenicity, subcutaneous xenograft mouse model; details: ectopic expression in HCT-116 cells, subcutaneous in SCID mice; 21 days
Method: Here. FAK and FRNK transfectants were used as controls. […] All results are presented as the means ±s.d. from at least three independent experiments (*. p<0.05, compared with the corresponding mock control). […] An in vivo tumorigenicity assay was conducted using a xenograft mouse model by subcutaneously injecting cells described above into SCID mice. Mice were sacrificed 21 days after tumor injection. Tumor mass (left, top), protein expression (left, bottom), and tumor weight (right) of the xenografts were measured. Five mice were assessed for each group (Scale bar, 1 cm. *, p<0.05, compared with the corresponding mock control).

MDA-MB-231 cells [10] = assay: anchorage-independent growth in soft agar assay, MDA-MB-231; format: cell-based, human; details: in comparison with the TAT alone, peptide 10 μM or 50 μM
Method: Experiments were performed as previously described'^9, with the following modifications. A total of 5×10^4 cells were seeded in 0.3% agar in DMEM plus 10% […] and EGF (10 ng/ml) over the bottom 0.6% agar layer in DMEM. After incubation for 14 days, the number of colonies was scored.

[11] = molecular target: T1, focal adhesion kinase (FAK) (human, UniProt Q05397 2-1052); assay: HA-tagged β4 fragments in HEK-293 cells (FIG. 9F)
T1 construct: Endogenous FAK in lysates of human cells and tissues; also called full-length FAK; FAX [sic]

β4 integrin [12] = molecular target: T2, β4 integrin (human, UniProt P16144 28-1822, limits assumed); assay: Ni-bead pull-down from MDA-MB-231 lysate, anti-β4 integrin Western blot (FIG. 1(g))
T2 construct: Endogenous full-length β4 integrin in lysates or immunoprecipitates; In cells it is paired with α6 integrin; also called integrin β4; ITGB4

β4 integrin [13] = molecular target: T2, β4 integrin; assay: GST pull-down from HCT-116 lysate, anti-β4 integrin Western blot (FIG. 9(C))
β4 integrin [14] = molecular target: T2, β4 integrin; assay: overexpression in HCT-116 cells

T2 sequence (P16144 28-1822 limits assumed): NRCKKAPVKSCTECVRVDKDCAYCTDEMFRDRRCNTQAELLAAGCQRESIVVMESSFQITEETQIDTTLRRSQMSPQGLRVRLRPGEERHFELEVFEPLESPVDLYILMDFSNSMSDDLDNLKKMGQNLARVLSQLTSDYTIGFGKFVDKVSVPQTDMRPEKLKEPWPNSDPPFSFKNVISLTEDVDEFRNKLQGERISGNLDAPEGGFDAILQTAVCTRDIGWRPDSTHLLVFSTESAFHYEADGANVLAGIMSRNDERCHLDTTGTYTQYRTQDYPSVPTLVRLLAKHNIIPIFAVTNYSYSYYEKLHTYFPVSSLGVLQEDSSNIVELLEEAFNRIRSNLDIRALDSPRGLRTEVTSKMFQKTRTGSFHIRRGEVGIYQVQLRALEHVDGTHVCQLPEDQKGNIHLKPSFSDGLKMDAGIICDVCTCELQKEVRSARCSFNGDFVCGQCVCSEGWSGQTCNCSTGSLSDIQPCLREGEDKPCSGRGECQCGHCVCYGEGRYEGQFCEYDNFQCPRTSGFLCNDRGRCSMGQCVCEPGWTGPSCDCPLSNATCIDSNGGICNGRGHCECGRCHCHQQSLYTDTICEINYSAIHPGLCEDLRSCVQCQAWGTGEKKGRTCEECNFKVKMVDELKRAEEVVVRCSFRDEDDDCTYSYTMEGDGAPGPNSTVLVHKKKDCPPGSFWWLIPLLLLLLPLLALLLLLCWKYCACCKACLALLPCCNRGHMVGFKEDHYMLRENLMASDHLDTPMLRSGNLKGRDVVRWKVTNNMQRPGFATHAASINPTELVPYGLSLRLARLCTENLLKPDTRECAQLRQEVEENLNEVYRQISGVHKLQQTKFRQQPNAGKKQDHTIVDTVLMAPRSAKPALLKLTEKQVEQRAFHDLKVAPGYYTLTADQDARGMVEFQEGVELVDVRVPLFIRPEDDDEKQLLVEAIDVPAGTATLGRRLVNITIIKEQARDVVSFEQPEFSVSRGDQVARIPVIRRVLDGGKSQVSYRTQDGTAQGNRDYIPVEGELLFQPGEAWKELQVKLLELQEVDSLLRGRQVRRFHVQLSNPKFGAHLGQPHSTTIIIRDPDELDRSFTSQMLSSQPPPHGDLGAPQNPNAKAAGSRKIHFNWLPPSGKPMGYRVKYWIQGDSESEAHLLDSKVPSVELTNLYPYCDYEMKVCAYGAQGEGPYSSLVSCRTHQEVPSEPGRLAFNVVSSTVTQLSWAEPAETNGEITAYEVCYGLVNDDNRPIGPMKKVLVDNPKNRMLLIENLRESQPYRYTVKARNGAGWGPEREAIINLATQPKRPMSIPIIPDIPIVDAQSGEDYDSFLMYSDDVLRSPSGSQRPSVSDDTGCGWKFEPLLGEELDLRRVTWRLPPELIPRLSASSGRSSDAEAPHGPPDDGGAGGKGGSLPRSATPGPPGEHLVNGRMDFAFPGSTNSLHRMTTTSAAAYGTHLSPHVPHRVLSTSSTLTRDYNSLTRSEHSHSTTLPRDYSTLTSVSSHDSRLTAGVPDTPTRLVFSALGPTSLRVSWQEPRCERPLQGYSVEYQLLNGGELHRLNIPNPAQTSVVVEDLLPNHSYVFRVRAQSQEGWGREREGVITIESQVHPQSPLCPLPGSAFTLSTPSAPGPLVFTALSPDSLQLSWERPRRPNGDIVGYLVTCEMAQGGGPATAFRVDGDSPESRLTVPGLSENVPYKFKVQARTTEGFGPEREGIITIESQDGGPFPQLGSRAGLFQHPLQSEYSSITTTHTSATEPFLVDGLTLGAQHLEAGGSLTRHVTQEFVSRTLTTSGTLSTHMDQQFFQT
Sequence of paxillin/FAK complex (Q8VI36 whole entry): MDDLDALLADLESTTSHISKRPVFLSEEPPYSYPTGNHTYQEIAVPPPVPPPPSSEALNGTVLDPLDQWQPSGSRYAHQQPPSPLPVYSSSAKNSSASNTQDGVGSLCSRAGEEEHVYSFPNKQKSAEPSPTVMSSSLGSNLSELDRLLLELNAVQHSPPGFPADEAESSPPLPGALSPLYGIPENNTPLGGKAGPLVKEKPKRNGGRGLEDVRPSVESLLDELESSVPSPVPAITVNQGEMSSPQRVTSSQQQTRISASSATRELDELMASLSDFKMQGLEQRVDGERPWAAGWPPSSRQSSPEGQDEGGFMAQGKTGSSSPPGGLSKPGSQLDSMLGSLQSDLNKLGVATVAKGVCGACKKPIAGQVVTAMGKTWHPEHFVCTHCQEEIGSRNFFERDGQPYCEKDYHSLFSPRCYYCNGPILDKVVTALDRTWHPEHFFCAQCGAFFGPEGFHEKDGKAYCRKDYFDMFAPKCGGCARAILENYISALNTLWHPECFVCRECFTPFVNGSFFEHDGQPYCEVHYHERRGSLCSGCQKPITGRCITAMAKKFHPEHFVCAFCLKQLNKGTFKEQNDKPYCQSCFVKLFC
Sequence of paxillin/FAK complex (P34152 whole entry, further chain): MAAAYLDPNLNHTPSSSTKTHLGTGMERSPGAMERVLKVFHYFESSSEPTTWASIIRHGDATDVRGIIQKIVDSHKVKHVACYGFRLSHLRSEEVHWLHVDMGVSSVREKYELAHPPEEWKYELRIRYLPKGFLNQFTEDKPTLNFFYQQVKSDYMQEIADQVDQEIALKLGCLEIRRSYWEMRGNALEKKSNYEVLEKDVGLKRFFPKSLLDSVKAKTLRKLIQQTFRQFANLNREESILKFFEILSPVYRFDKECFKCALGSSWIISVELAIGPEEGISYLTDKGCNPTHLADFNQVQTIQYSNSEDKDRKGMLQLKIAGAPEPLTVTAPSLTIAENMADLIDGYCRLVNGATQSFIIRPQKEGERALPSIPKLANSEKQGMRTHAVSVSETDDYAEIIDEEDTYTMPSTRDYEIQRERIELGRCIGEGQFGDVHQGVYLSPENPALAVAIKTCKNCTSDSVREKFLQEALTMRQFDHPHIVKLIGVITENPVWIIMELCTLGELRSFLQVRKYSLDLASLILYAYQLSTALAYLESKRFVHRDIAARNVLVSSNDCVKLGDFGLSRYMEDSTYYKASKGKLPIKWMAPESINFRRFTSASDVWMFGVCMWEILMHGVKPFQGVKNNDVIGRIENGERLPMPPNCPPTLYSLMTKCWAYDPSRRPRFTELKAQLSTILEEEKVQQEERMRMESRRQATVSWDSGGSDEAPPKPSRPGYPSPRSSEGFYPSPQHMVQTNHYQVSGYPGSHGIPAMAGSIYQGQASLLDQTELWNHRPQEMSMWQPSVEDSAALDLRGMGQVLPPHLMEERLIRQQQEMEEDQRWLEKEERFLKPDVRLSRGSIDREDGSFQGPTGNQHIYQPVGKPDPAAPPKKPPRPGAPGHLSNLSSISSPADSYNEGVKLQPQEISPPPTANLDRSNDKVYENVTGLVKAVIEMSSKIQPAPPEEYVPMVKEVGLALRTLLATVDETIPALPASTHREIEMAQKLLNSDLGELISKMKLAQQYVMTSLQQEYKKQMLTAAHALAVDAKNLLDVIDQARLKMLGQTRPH
T1 sequence (Q05397 2-1052 limits assumed): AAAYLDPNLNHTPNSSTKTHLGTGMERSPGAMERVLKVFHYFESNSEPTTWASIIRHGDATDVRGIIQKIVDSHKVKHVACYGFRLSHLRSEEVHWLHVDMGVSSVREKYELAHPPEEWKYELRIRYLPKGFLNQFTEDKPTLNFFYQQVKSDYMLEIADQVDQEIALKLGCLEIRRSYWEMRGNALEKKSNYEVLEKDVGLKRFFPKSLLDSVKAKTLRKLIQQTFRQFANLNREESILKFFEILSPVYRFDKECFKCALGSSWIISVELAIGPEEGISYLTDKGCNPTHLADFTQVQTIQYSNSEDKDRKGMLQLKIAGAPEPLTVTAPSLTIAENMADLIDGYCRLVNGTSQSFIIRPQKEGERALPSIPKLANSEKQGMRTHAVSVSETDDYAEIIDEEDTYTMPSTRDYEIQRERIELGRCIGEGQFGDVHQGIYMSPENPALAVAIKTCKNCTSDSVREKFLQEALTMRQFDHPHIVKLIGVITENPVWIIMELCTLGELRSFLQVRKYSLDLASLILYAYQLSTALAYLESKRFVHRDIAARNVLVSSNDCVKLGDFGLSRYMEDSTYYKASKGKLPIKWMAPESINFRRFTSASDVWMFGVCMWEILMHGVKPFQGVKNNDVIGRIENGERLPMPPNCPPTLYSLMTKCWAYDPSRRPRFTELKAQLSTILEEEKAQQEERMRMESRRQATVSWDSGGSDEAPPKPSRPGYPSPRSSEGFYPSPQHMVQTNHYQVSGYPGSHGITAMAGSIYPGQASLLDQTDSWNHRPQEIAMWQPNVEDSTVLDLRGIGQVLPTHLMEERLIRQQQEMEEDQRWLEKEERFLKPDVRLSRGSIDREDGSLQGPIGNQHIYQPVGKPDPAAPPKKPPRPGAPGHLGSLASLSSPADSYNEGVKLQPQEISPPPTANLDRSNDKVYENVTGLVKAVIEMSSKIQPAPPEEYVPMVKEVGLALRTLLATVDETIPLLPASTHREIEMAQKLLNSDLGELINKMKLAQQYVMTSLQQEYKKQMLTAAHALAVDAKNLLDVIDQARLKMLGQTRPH

Molecule: CS(=O)(=O)c1cccc(CNc2nc(Nc3ccc4c(c3)CCC(=O)N4)ncc2C(F)(F)F)c1 [PF-573,228, reference compound]
- β4 integrin/FAK complex formation (β4 integrin/FAK complex [1]; FAK activity inhibited, 10 μM): still formed
- anchorage-independent growth (soft agar) (HCT-116 cells [2]; HCT-116 cells treated with FAK inhibitor, DMSO control): impairs

Molecule: CC(C)(C)n1nc(-c2ccc(Cl)cc2)c2c(N)ncnc21 [PP2]
- formation of the β4 integrin/FAK complex (β4 integrin/FAK complex [3]; MDA-MB-231 cells, 10 μM, compared to PP3- or DMSO-treated cells): markedly reduced
- interaction between β4 integrin and FAK under EGF stimulation (β4 integrin/FAK complex [3]; serum-starved MDA-MB-231 cells, EGF 10 ng/ml, inhibitor 10 μM): remained absent
- phosphorylation level of FAK at Tyr397 (FAK phospho-Tyr397; MDA-MB-231 cells, 10 μM): reduced
- phosphorylation level of β4 integrin at Tyr1526 (β4 integrin at Tyr1526): reduced
- β4 integrin and FAK association in response to EGF stimulation (β4 integrin/FAK complex [1]; EGF stimulation): ablated
- β4 integrin/FAK complex formation (β4 integrin/FAK complex [1]; blockade of Src activity): decrease
- FAK activation in response to EGF stimulation ([4]; HCT-116 cells, EGF stimulation): ablated
- FAK activation ([4]; HCT-116 cells, blockade of Src activity): alleviate

Molecule: FAK/25aa: the 376th to 400th amino acids of FAK, SEQ ID NO: 3; overexpressed GFP-tagged in cells (LANNEKQGVRSHTVSVSETDDYAEI; also: GFP tag)
- level of FAK co-immunoprecipitated by β4 integrin (β4 integrin/FAK complex [3]; MDA-MB-231 cells, increased expression of the peptide): attenuated in a dose-dependent manner
- FAK phospho-Tyr397 (FAK phospho-Tyr397; transfected MDA-MB-231 cells, in comparison to mock or triple-mutant transfectants): decreased
- paxillin/FAK complex (paxillin/FAK complex): not affected
- β1 integrin-mediated cell migration (NIH3T3): not affected
- cell proliferation (MDA-MB-231 cells [5]): decreased
- size and weight of tumors (MDA-MB-231 cells [6]): significant reductions
- lung metastatic nodules (MDA-MB-231 cells [7]): less-developed
- interaction between β4 integrin and FAK (β4 integrin/FAK complex [1]; overexpressed motif): ablated
- Tyr397-autophosphorylation of FAK ([4]; transfected HCT-116 cells): diminished
- cell proliferation (HCT-116 cells [8]): impaired
- anchorage-independent growth (HCT-116 cells [2]; HCT-116 transfectants, compared with mock and triple-mutant cells): considerably decreased
- volume and weight of implanted colon cancer tumors (HCT-116 cells [9]): significantly reduced

Molecule: TAT-FAK/25aa: synthesized peptide, FAK/25aa fused with the TAT peptide; sequence GRKKRRQRRRPQLANNEKQGVRSHTVSVSETDDYAE1 (GRKKRRQRRRPQLANNEKQGVRSHTVSVSETDDYAEI)
- formation of the β4 integrin/FAK complex (β4 integrin/FAK complex [3]; MDA-MB-231 cells, extracellular administration of peptide (10 μM)): capable of alleviating
- foci less formed in soft agar (MDA-MB-231 cells [10]): approximately 30%

B1: β4-CalX (other, UniProt P16144 979-1084, looked up)
chain: VNITIIKEQARDVVSFEQPEFSVSRGDQVARIPVIRRVLDGGKSQVSYRTQDGTAQGNRDYIPVEGELLFQPGEAWKELQVKLLELQEVDSLLRGRQVRRFHVQLS
notes: domain: Na+/Ca2+ exchanger homologous motif (CalX); also called β4 Na+/Ca2+ exchanger homologous motif; HA-tagged β4-CalX; not shown: HA tag of the pKH3 vector
- binding result [11]: no binding

B2: His-tagged FAK/N375 (other)
chain: MAAAYLDPNLNHTPSSSAKTHLGTGMERSPGAMERVLKVFHYFENSSEPTTWASIIRHGDATDVRGIIQKIVDCHKVKNVACYGLRLSHLQSEEVHWLHLDMGVSNVREKFELAHPPEEWKYELRIRYLPKGFLNQFTEDKPTLNFFYQQVKNDYMLEIADQVDQEIALKLGCLEIRRSYGEMRGNALEKKSNYEVLEKDVGLRRFFPKSLLDSVKAKTLRKLIQQTFRQFANLNREESILKFFEILSPVYRFDKECFKCALGSSWIISVELAIGPEEGISYLTDKGANPTHLADFNQVQTIQYSNSEDKDRKGMLQLKIAGAPEPLTVTAPSLTIAENMADLIDGYCRLVNGATQSFIIRPQKEGERALPSIPK
notes: Recombinant protein from E. coli; not shown: His tag
- binding result (β4 integrin [12]): no binding

B3: GST-FAK/N375 (other)
chain: B2 chain
notes: Recombinant protein from E. coli; not shown: GST of the pGEX-2T vector
- binding result (β4 integrin [13]): no binding

B4: GFP-tagged FAK/25aa^R385A/S386A (peptide)
chain: LANNEKQGVAAHTVSVSETDDYAEI
modifications: also: GFP tag
notes: Positions are printed in full-length FAK numbering; also called double mutant of FAK/25aa; not shown: GFP of the pEGFP vector
- binding result (β4 integrin [14]): binds
